Values of other authors as cited in patent US11766458B2, “Method and a dietary composition on regulation, treatment, and prevention of obesity” (priority 2021, dated 2023).

What was measured:
[1] = Nutrition & Diabetes volume 11, Article number: 3, 2021

**Q.** For N=C(N)NCCC[C@H](N)C(=O)O [L-arginine], which GLP-1 secretion (DIO C57BL/6 mice; oral 1 g/kg 15 minutes before OGTT) is on record?
**A.** induces GLP-1 secretion

**Q.** And the Glucose resistance (DIO C57BL/6 mice; oral 1 g/kg 15 minutes before OGTT (2 g glucose/kg bw))?
**A.** improves glucose resistance

**Q.** And the “Energy intake (food diary)” value (after L-arginine treatment)?
**A.** less energy intake

**Q.** And the “Release of plasma PYY” value (healthy people, oral 17.1 mmol, after unlimited meals, p<0.001)?
**A.** stimulated

**Q.** What about the “Release of plasma GLP-1” value (healthy people, oral 17.1 mmol, after unlimited meals, p<0.05) of the same compound?
**A.** stimulated

**Q.** For N[C@@H](Cc1c[nH]c2ccccc12)C(=O)O [tryptophan], which Gastric emptying [1] is on record?
**A.** delays the gastric emptying
